Read-outs that look alike come from different tables or passages of the source. Non-standard residues stand in square brackets, D forms with d. Primed or numbered codes have the meaning given here. *: point of attachment. DO3A10CM(3) = metal chelator group attached at the N-terminus (X in table rows); DO3A10CM″ = chelating group at the N-terminus (X in the sequence tables); Bpa = N[C@@H](Cc1ccc(C(=O)c2ccccc2)cc1)C(=O)O; d1Nal = N[C@H](Cc1cccc2ccccc12)C(=O)O; d2Nal = N[C@H](Cc1ccc2ccccc2c1)C(=O)O; Hyp = O=C(O)[C@@H]1C[C@@H](O)CN1; d3Pal = N[C@H](Cc1cccnc1)C(=O)O; His(1-Me) = 1-methylhistidine; DO3A10CM = not defined here; Nicotinoyl = O=C(c1cccnc1)*; Bpa4 = non-natural residue; Amfe4 = not defined here; Bzgly = not defined here; Dcfe4 = not defined here; dCfe4 = not defined here; Afe4 = not defined here; azaGly = NNC(=O)O; Sar = CNCC(=O)O; iPr = CC(C)*
B1: BRU-2644 (peptide)
peptide: {DO3A10CM(3)}-G[d2Nal][dCfe4][d3Pal]SH[dR]WYP[dA]-NH2
modifications: reading uncertain; also: printed as DO3A10CM-Gly-Dnal2-Dcfe4-Dpal3-Ser-His-Darg-Trp-Tyr-Pro-Dala-NH2
B2: BRU-2812 (peptide)
peptide: DO3A10CM-[d2Nal][Afe4]WSH[dR]W[Bpa]P[azaGly]-NH2
modifications: reading uncertain; also: printed as DO3A10CM-Dnal2-Afe4-Trp-Ser-His-Darg-Trp-Bpa4-Pro-azaGly-NH2
B3: BRU-2756 (peptide)
peptide: DO3A10CM-[Sar][Amfe4]WSH[dR]W[Bpa4]P[azaGly]-NH2
modifications: reading uncertain; also: printed as DO3A10CM-Sar-Amfe4-Trp-Ser-His-Darg-Trp-Bpa4-Pro-azaGly-NH2
B4: BRU-2792 (peptide)
peptide: DO3A10CM-G[Bzgly]HWSH[dR]W[Bpa]P[azaGly]-NH2
modifications: reading uncertain; also: printed as DO3A10CM-Gly-Bzgly-His-Trp-Ser-His-Darg-Trp-Bpa4-Pro-azaGly-NH2

Key:
[1] = tested on: LHRH binding sites on human ovarian cancer cells (EFO-27);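 also: Cell-associated radioactivity on confluent EFO-27 monolayers in 96-well plates, measured by microplate scintillation counting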
[2] = tested on: EFO-27 human ovarian cancer cells (LHRH binding sites); test: Direct binding/uptake of 177Lu-labeled LHRH-II analogs to EFO-27 cells; conditions: 177Lu-labeled analog, single concentration
Protocol: All reagents and chemicals were obtained from Sigma unless otherwise specified. LHRH analogs and ^177Lu-LHRH-II analogs were prepared by in-house chemists, as described elsewhere in the application. ^177Lu-LHRH-II analogs were not HPLC purified, as they had been prepared using formulation conditions that yielded high RCP without the need for purification. […] The HPLC-purified material was taken in a stabilizing buffer containing 5% lactose, 0.1% L-cysteine hydrochloride and 800 KIU/mL aprotinin and received as a lyophilized product and stored at −70° C. This was reconstituted in distilled water, aliquoted and stored at −70° C. The radioactivity was determined using Microplate Scintillation counter (Wallac Microbeta Trilux).
For the binding assay, EFO-27 cells were seeded onto 96-well clear flat-bottom tissue-culture-treated plates at 15,000/well density in the growth medium and used for assay on day 2 post-seeding. Cells were routinely checked for confluence and contamination and cell count was done occasionally to ensure consistency in cell numbers.
Direct Binding: Direct binding studies were carried out by incubating appropriate ^177Lu-labeled compounds with EFO-27 cells at 4° C. for 1 h followed by washing off the unbound radioactivity. Non-specific binding was determined by incubating the ^177Lu-LHRH-II analogs in the presence of a large excess (30 uM) of cold (unlabeled) LHRH-II analogs. A 96-well plate format was used.

[3] = biological target: LHRH receptor (LHRH binding sites) on EFO-27 human ovarian cancer cells (human); test: competition with [125I-Tyr8]BRU-2477 for binding to EFO-27 cells
[4] = biological target: LHRH binding sites on EFO-27 human ovarian cancer cells (human); test: competition with [125I-Tyr8]BRU-2477 on EFO-27 cells
[5] = read-out: 125I-LHRH II Competition EC50, Table 24, unlabeled analogs, EFO-27 cells
[6] = Table 8: N-substituted amino acid at position 1 and Gly as linker, in vitro binding on EFO-27 cells
[7] = Table 13: linker between AA1 and DO3A10CM, EFO-27 cells

Row | Molecule | 177Lu-LHRH II Direct binding % Bound [2] [%] | EC50 [1, 5] [nM] | EC50 [3] [nM] | further results
1 | N=C(N)NCCC[C@H](NC(=O)[C@@H](Cc1ccc2ccccc2c1)NC(=O)CN1CCN(CC(=O)O)CCN(CC(=O)O)CCN(CC(=O)O)CC1)C(=O)N[C@@H](Cc1c[nH]c2ccccc12)C(=O)N[C@@H](CO)C(=O)N[C@@H](Cc1c[nH]cn1)C(=O)N[C@H](CCCNC(=N)N)C(=O)N[C@@H](Cc1c[nH]c2ccccc12)C(=O)N[C@@H](Cc1ccc(C(=O)c2ccccc2)cc1)C(=O)N1CCC[C@H]1C(=O)NCCOCCN [compound 2968] | 23.5 |  |  | EC50 [1]: 240 nM
2 | 2624 (XHWSHXWXPX; N-methyl) [compound 2624] | 4.03 | 2010 |  | 
3 | N=C(N)NCCC[C@@H](NC(=O)[C@H](Cc1c[nH]cn1)NC(=O)[C@H](CO)NC(=O)[C@H](Cc1c[nH]c2ccccc12)NC(=O)[C@H](Cc1c[nH]cn1)NC(=O)CN(Cc1ccccc1)C(=O)CNC(=O)CN1CCN(CC(=O)O)CCN(CC(=O)O)CCN(CC(=O)O)CC1)C(=O)N[C@@H](Cc1c[nH]c2ccccc12)C(=O)N[C@@H](Cc1ccc(C(=O)c2ccccc2)cc1)C(=O)N1CCC[C@H]1C(=O)NNC(N)=O [compound 2792] | 1.28 | 1800 |  | EC50 [1, 6]: 2270 nM; EC50 [1, 7]: 650 nM
4 | 2725 (XHWSHXWXPX; not fully specified; N-methyl) [compound 2725] | 0.41 | 2260 |  | 
5 | 2613 (DO3A10CM-G[Sar][Dcfe4][d1Nal]S[Metyr][dK](Nicotinoyl)LK(iPr)P[dA]-NH2; reading uncertain) [compound 2613] | 0.17 | > 10000 |  | 
6 | 2721 (XHWSHXWXPX; not fully specified; N-methyl) [compound 2721] | 0.79 | 4550 |  | 
7 | 2644 (DO3A10CM-G[d2Nal][Dcfe4][d3Pal]SH[dR]WYP[dA]-NH2; reading uncertain) [compound 2644] | 2.13 | 2910 |  | 
8 | N=C(N)NCCC[C@@H](NC(=O)[C@H](Cc1c[nH]cn1)NC(=O)[C@H](CO)NC(=O)[C@H](Cc1c[nH]c2ccccc12)NC(=O)[C@H](Cc1c[nH]cn1)NC(=O)CN(CCc1ccc(O)cc1)C(=O)CNC(=O)CN1CCN(CC(=O)O)CCN(CC(=O)O)CCN(CC(=O)O)CC1)C(=O)N[C@@H](Cc1c[nH]c2ccccc12)C(=O)N[C@@H](Cc1ccc(C(=O)c2ccccc2)cc1)C(=O)N1CCC[C@H]1C(=O)NNC(N)=O [compound 2797] | 4.64 |  |  | EC50 [1, 6]: 450 nM
9 | 2756 (DO3A10CM-[Sar][Amfe4]WSH[dR]W[Bpa4]P[azaGly]-NH2; reading uncertain) [compound 2756] | 5.17 | 280 |  | 
10 | 2823 (XHWSHXWXPX; not fully specified; N-methyl) [compound 2823] | 1.00 | 1610 |  | 
11 | 2742 (XHWSHXWXPX; N-methyl) [compound 2742] | 0.125 | > 10000 |  | 
12 | 2440 (DO3A10CM-[Sar]HWSH[dR]WYP[azaGly]-NH2; reading uncertain) [compound 2440] | 0.21 | > 10000 |  | 
13 | 2642 (DO3A10CM-G[d2Nal][Dcfe4][d3Pal]S[Metyr][dK](Nicotinoyl)LK(iPr)[Hyp][dA]-NH2; reading uncertain) [compound 2642] | 0.105 | > 10000 |  | 
14 | 2766 (DO3A10CM-G[d1Nal]HWSH[dR]W[Bpa]P[azaGly]-NH2; reading uncertain) [compound 2766] | 10.29 | 620 |  | 
15 | 2812 (DO3A10CM-[d2Nal][Afe4]WSH[dR]W[Bpa]P[azaGly]-NH2; not fully specified; printed as X-Dnal2-Afe4-Trp-Ser-His-Darg-Trp-Bpa4-Pro-azaG-NH2; reading uncertain) [compound 2812] | 5.80 | 3690 |  | 
16 | N=C(N)NCCC[C@H](NC(=O)[C@@H](Cc1ccc2ccccc2c1)NC(=O)CN1CCN(CC(=O)O)CCN(CC(=O)O)CCN(CC(=O)O)CC1)C(=O)N[C@@H](Cc1c[nH]c2ccccc12)C(=O)N[C@@H](CO)C(=O)N[C@@H](Cc1c[nH]cn1)C(=O)N[C@H](CCCNC(=N)N)C(=O)N[C@@H](Cc1c[nH]c2ccccc12)C(=O)N[C@@H](Cc1ccc(C(=O)c2ccccc2)cc1)C(=O)N1CCC[C@H]1C(=O)NNC(N)=O [compound 2813] | 18.80 | 300 |  | 
17 | CN(CC(=O)N[C@@H](Cc1c[nH]cn1)C(=O)N[C@@H](Cc1c[nH]c2ccccc12)C(=O)N[C@@H](CO)C(=O)N[C@@H](Cc1c[nH]cn1)C(=O)N[C@H](CCCNC(=N)N)C(=O)N[C@@H](Cc1c[nH]c2ccccc12)C(=O)N[C@@H](Cc1ccc(C(=O)c2ccccc2)cc1)C(=O)N1CCC[C@H]1C(=O)NNC(N)=O)C(=O)CN1CCN(CC(=O)O)CCN(CC(=O)O)CCN(CC(=O)O)CC1 [compound 2443] | 1.8 | 950 |  | EC50 ([1]; Table 11: modification of amino acid at position 5, EFO-27 cells): 950 nM; EC50 [1, 7]: 950 nM
18 | N=C(N)NCCC[C@@H](NC(=O)[C@H](Cc1c[nH]cn1)NC(=O)[C@H](CO)NC(=O)[C@H](Cc1c[nH]c2ccccc12)NC(=O)[C@H](Cc1c[nH]cn1)NC(=O)[C@@H](Cc1ccc2ccccc2c1)NC(=O)CN1CCN(CC(=O)O)CCN(CC(=O)O)CCN(CC(=O)O)CC1)C(=O)N[C@@H](Cc1c[nH]c2ccccc12)C(=O)N[C@@H](Cc1ccc(C(=O)c2ccccc2)cc1)C(=O)N1CCC[C@H]1C(=O)NNC(N)=O [compound 2666] | 13.25 |  |  | 

Row | Molecule | 177Lu-LHRH II Direct binding % Bound [2] [%] | EC50 [1, 5] [nM] | EC50 [3] [nM] | further results
19 | 2741 (DO3A10CM-[Sar][His(1-Me)]WSH[dR]W[Bpa]P[azaGly]-NH2; reading uncertain) [compound 2741] | 1.35 | 2990 |  | 
20 | 2722 (XHWSHXWXPX; not fully specified; N-methyl) [compound 2722] | 0.36 | 4620 |  | 
21 | 2738 (XFWSHXWXPX; N-methyl) [compound 2738] | 1.41 |  |  | 
22 | 2896 (XHWSHXWXPX; not fully specified; N-methyl) [compound 2896] | 0.70 | 3200 |  | 
23 | XHWSHXWXPX (DO3A10CM on N-terminus; AA1 Dafe4; AA6 Darg; AA8 Bpa4; AA10 azaGly-NH2) [BRU-2810] |  |  | 980 | EC50 [4]: 980 nM
24 | XHWSHXWXPX (DO3A10CM on N-terminus; AA1 Sar; AA6 Darg; AA8 Thy; AA10 azaGly-NH2) [BRU-2823] |  |  | 1610 | EC50 [4]: 1610 nM
25 | B1 |  |  | 2910 | 
26 | XHWSHXWXPX (DO3A10CM on N-terminus; AA1 Sar; AA6 Darg; AA8 F5fe; AA10 azaGly-NH2) [BRU-2722] |  |  | 4620 | EC50 [4]: 4620 nM
27 | XFWSHXWXPX (as printed: DO3A10CM-Sar-Phe-Trp-Ser-His-Darg-Trp-Bpa4-Pro-azaGly-NH2) [BRU-2738] |  |  | 1220 | 
28 | XHWSHXWXPX (DO3A10CM on N-terminus; AA1 Meala; AA6 Darg; AA8 Bpa4; AA10 azaGly-NH2) [BRU-2736] |  |  | 1420 | EC50 [4]: 1420 nM
29 | B2 |  |  | 3690 | 
30 | XHWSHXWXPX (DO3A10CM on N-terminus; AA1 Sar; AA6 Darg; AA8 Nal2; AA10 azaGly-NH2) [BRU-2624] |  |  | 2010 | EC50 [4]: 2010 nM
31 | {DO3A10CM″}-[Sar][His(1-Me)]WSH[dR]W[Bpa]P[azaGly]-NH2 [BRU-2741] |  |  | 2990 | EC50 [4]: 2990 nM
32 | B3 |  |  | 280 | EC50 [4]: 280 nM
33 | XHWSHXWXPX (DO3A10CM on N-terminus; AA1 Sar; AA6 Darg; AA8 Dip; AA10 azaGly-NH2) [BRU-2721] |  |  | 4550 | EC50 [4]: 4550 nM
34 | B4 |  |  | 1800 | EC50 [4]: 2270 nM
35 | XHWSHXWXPX (DO3A10CM on N-terminus; AA1 Sar; AA6 Darg; AA8 Cfe4; AA10 azaGly-NH2) [BRU-2725] |  |  | 2260 | EC50 [4]: 2260 nM
